Here are results for 27 compounds from patent US8987314B2, “Amide, urea or sulfone amide linked benzothiazole inhibitors of endothelial lipase” (Bristol-Myers Squibb Company, priority 2012, dated 2015).

One test deals with Endothelial lipase (EL) (Homo sapiens (Human), UniProt Q9Y5X9). Nature of the test: EL assay: endothelial lipase activity with fluorescent substrate A10070 in DMPG vesicles. The test is classed as biochemical. The essentials: (§1)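 EL from conditioned medium of HT-1080 cells engineered to overexpress endogenous EL; HL partially purified from conditioned medium of HL-overexpressing COS cells. Enzyme preincubated with compound 30 min at 37° C in 50 mM HEPES pH 8.0, 50 mM NaCl, 1 mM CaCl2; DMPG vesicles carrying FRET substrate (0.11 mole fraction) then added.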
Endothelial lipase (EL), sequence (Q9Y5X9 21-500): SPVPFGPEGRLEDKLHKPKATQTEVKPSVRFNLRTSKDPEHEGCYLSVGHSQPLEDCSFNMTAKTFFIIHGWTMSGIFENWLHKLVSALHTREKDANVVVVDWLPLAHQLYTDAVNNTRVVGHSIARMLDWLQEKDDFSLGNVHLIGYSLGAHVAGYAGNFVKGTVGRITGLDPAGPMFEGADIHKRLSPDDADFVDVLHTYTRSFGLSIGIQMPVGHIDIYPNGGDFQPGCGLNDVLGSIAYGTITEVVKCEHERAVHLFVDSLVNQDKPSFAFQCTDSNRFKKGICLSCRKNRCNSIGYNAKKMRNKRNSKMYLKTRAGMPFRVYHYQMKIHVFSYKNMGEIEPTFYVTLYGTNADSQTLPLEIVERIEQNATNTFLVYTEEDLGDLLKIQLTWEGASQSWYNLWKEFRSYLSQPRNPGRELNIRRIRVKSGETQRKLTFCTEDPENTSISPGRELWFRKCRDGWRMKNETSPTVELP

A further test addresses hepatic lipase (HL) (Homo sapiens (Human), UniProt P11150). Nature of the test: HL assay: hepatic lipase activity with fluorescent substrate A10070 in DMPG vesicles. In kind it is biochemical. Put shortly: as §1

hepatic lipase (HL), sequence (P11150 23-499, species assumed): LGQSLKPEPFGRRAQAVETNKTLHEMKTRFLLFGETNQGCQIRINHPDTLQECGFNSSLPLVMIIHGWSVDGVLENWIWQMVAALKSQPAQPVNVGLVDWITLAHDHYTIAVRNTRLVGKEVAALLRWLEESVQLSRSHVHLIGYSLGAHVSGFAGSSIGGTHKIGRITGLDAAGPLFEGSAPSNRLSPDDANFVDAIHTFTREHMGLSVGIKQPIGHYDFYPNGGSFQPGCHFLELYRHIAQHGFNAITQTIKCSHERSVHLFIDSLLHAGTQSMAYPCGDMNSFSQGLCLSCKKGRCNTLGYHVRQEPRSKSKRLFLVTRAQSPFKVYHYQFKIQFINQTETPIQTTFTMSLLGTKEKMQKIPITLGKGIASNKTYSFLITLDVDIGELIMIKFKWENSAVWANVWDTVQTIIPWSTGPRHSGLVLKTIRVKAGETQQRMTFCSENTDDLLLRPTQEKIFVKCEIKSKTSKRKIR

With `CC(C)CS(=O)(=O)C(C(=O)NCCS(N)(=O)=O)c1nc2ccc(-c3cnn(CCN4CCOCC4)c3)cc2s1` (stereo not drawn) [Example B123, 2-(isobutylsulfonyl)-2-(6-{1-[2-(4-morpholinyl)eth-yl]-1H-pyrazol-4-yl}-1,3-benzothiazol-2-yl)-N-(2-sulfamoylethyl)a-cetamide], the IC50 against Endothelial lipase (EL) is 18 nM; against hepatic lipase (HL) it was 400 nM.
Take `COCCS(=O)(=O)C(C(=O)NCCS(N)(=O)=O)c1nc2ccc(Br)cc2s1` (stereo not drawn) [Example B124, 2-(6-bromo-1,3-benzothiazol-2-yl)-2-((2-methoxyethyl)sulfonyl)-N-(2-sulfamoylethyl)a-cetamide]: the IC50 against Endothelial lipase (EL) came out at 26 nM; on hepatic lipase (HL), 830 nM.
For `NS(=O)(=O)CCNC(=O)C(c1nc2ccc(Br)cc2s1)S(=O)(=O)CCC(F)(F)F` (stereo not drawn) [Example B125, 2-(6-bromo-1,3-benzothiazol-2-yl)-N-(2-sulfamoylethyl)-2-((3,3,3-trifluoropropyl)sulfonyl)a-cetamide], the IC50 against Endothelial lipase (EL) was found to be 99 nM; at hepatic lipase (HL), 300 nM.
As for `NS(=O)(=O)CCNC(=O)C(c1nc2ccc(-c3ccnc(F)c3)cc2s1)S(=O)(=O)Cc1ccccc1` (stereo not drawn) [Example B126, 2-(benzylsulfonyl)-2-(6-(2-fluoro-4-pyridinyl)-1,3-benzothiazol-2-yl)-N-(2-sulfamoylethyl)acetamide], the IC50 against Endothelial lipase (EL) is less than 10 nM; at hepatic lipase (HL), 51 nM.
The corresponding values for `NS(=O)(=O)CCNC(=O)C(c1nc2ccc(-c3cnn(CCN4CCOCC4)c3)cc2s1)S(=O)(=O)CCCC(F)(F)F` (stereo not drawn) [Example B127, 2-(6-(1-(2-(4-morpholinyl)eth-yl)-1H-pyrazol-4-yl)-1,3-benzothiazol-2-yl)-N-(2-sulfamoylethyl)-2-((4,4,4-trifluorobutyl)sul-fonyl)acetamide] are less than 10 nM and 933 nM.
For `Cc1cc2nc(C(C(=O)NCCS(N)(=O)=O)S(C)(=O)=O)sc2cc1-c1ccc(F)nc1` (stereo not drawn) [Example B129], the IC50 against Endothelial lipase (EL) and against hepatic lipase (HL) was less than 10 nM throughout.
Turning to `Cc1cc2nc(C(C(=O)NCCS(N)(=O)=O)S(=O)(=O)CCC(F)(F)F)sc2cc1-c1ccc(F)nc1` (stereo not drawn) [Example B130, 2-(6-(6-fluoro-3-pyridinyl)-5-methyl-1,3-benzothiazol-2-yl)-2-(3,3,3-trifluoropropyl-sulfonyl)-N-(2-sulfamoylethyl)acetamide], the IC50 is less than 10 nM on Endothelial lipase (EL) and 13 nM against hepatic lipase (HL).
For the compound `Cc1cc2nc(C(C(=O)NCCS(N)(=O)=O)S(=O)(=O)CC(C)C)sc2cc1-c1ccc(F)nc1` (stereo not drawn) [Example B131, 2-(6-(6-fluoro-3-pyridinyl)-5-methyl-1,3-benzothiazol-2-yl)-2-(isobutylsulfonyl)-N-(2-sulfamoylethyl)acetamide], the IC50 on Endothelial lipase (EL) was less than 10 nM; at hepatic lipase (HL), 12 nM.
With `Cc1cc2nc(C(C(=O)NCCS(N)(=O)=O)S(=O)(=O)C(C)C)sc2cc1-c1ccc(F)nc1` (stereo not drawn) [Example B132, 2-(6-(6-fluoro-3-pyridinyl)-5-methyl-1,3-benzothiazol-2-yl)-2-(isopropylsulfonyl)-N-(2-sulfamoylethyl)acetamide], the IC50 at Endothelial lipase (EL) is less than 10 nM; against hepatic lipase (HL), 411 nM.
For the compound `NS(=O)(=O)CCNC(=O)C(c1nc2c(F)cc(-c3ccccc3)cc2s1)S(=O)(=O)Cc1ccccc1` (stereo not drawn) [Example B133, 2-(benzylsulfonyl)-2-(4-fluoro-6-phenyl-1,3-benzothiazol-2-yl)-N-(2-sulfamoylethyl)acetamide], the IC50 at Endothelial lipase (EL) was less than 10 nM; against hepatic lipase (HL), 22 nM.
The corresponding values for `COCCS(=O)(=O)C(C(=O)NCCS(N)(=O)=O)c1nc2c(F)cc(-c3ccccc3)cc2s1` (stereo not drawn) [Example B134, 2-(4-fluoro-6-phenyl-1,3-benzothiazol-2-yl)-2-((2-methoxyethyl)sulfonyl)-N-(2-sulfamoylethyl)a-cetamide] are less than 10 nM and 18 nM.
The corresponding values for `NS(=O)(=O)CCNC(=O)C(c1nc2cc(F)c(-c3ccccc3)cc2s1)S(=O)(=O)CCNC(=O)OCc1ccccc1` (stereo not drawn) [Example B135, benzyl (2-((1-(5-fluoro-6-phenyl-1,3-benzothiazol-2-yl)-2-oxo-2-((2-sulfamoyl-ethyl)amino)ethyl)sul-fonyl)ethyl)carbamate] are less than 10 nM and 56 nM.
The corresponding values for `NS(=O)(=O)CCNC(=O)C(c1nc2cc(F)c(-c3ccccc3)cc2s1)S(=O)(=O)CCC(F)(F)F` (stereo not drawn) [Example B136, 2-(5-fluoro-6-phenyl-1,3-benzothiazol-2-yl)-N-(2-sulfamoylethyl)-2-[(3,3,3-trifluoropropyl)sulfonyl]a-cetamide] are less than 10 nM and 11 nM.
For `CS(=O)(=O)C(C(=O)NCc1csc(N)n1)c1nc2ccc(-c3ccc(C(=O)N4CCOCC4)cc3)cc2s1` (stereo not drawn) [Example B137, N-((2-amino-1,3-thiazol-4-yl)methyl)-2-(methylsulfonyl)-2-(6-(4-(4-morpholinylcarbonyl)phen-yl)-1,3-benzothiazol-2-yl)acetamide], the IC50 against Endothelial lipase (EL) was less than 10 nM; at hepatic lipase (HL) it was 17500 nM.
Regarding `Cn1cc(-c2cc3sc(C(C(=O)NCCS(N)(=O)=O)S(=O)(=O)Cc4ccccc4)nc3cc2F)cn1` (stereo not drawn) [Example B138, 2-(benzylsulfonyl)-2-(5-fluoro-6-(1-methyl-1H-pyrazol-4-yl)-1,3-benzothiazol-2-yl)-N-(2-sulfamoylethyl)acetamide], the IC50 on Endothelial lipase (EL) is less than 10 nM; at hepatic lipase (HL), 142 nM.
As for `NS(=O)(=O)CCNC(=O)C(c1nc2ccc(-c3cncnc3)cc2s1)S(=O)(=O)CCC(F)(F)F` (stereo not drawn) [Example B139, 2-(6-(5-Pyrimidinyl)-1,3-benzothiazol-2-yl)-N-(2-sulfamoylethyl)-2-((3,3,3-trifluoropropyl)sulfonyl)a-cetamide], the IC50 worked out at 16 nM at Endothelial lipase (EL) and 2090 nM against hepatic lipase (HL).
The corresponding values for `NS(=O)(=O)CCNC(=O)C(c1nc2ccc(-c3cncnc3)cc2s1)S(=O)(=O)Cc1ccccc1` (stereo not drawn) [Example B140, 2-(benzylsulfonyl)-2-(6-(5-pyrimidinyl)-1,3-benzothiazol-2-yl)-N-(2-sulfamoylethyl)acetamide] are 13.7 nM and 8790 nM.
Turning to `COCCS(=O)(=O)C(C(=O)NCCS(N)(=O)=O)c1nc2ccc(-c3cncnc3)cc2s1` (stereo not drawn) [Example B141, 2-((2-methoxyethyl)sul-fonyl)-2-(6-(5-pyrimidinyl)-1,3-benzothiazol-2-yl)-N-(2-sulfamoylethyl)acetamide], the IC50 is 14.7 nM at Endothelial lipase (EL) and 2210 nM against hepatic lipase (HL).
On to `COc1cc(-c2ccc3nc(C(C(=O)NCCS(N)(=O)=O)S(C)(=O)=O)sc3c2)c(F)cn1` (stereo not drawn) [Example B142, 2-(6-(5-fluoro-2-methoxy-4-pyridinyl)-1,3-benzothiazol-2-yl)-2-(methylsulfonyl)-N-(2-sulfamoylethyl)acetamide], for which the values for the half-maximal inhibitory concentration (IC50) at Endothelial lipase (EL) and against hepatic lipase (HL) were more than 10 nM and 77 nM, respectively.
The corresponding values for `NS(=O)(=O)CCNC(=O)C(c1nc2ccc(-c3cncnc3)cc2s1)S(=O)(=O)Cc1ccc(F)cc1` (stereo not drawn) [Example B143, 2-((4-fluorobenzyl)sul-fonyl)-2-(6-(5-pyrimidinyl)-1,3-benzothiazol-2-yl)-N-(2-sulfamoylethyl)acetamide] are 18 nM and 4740 nM.
`COc1cc(-c2ccc3nc(C(C(=O)NCCS(N)(=O)=O)S(=O)(=O)CCC(F)(F)F)sc3c2)ccn1` (stereo not drawn) [Example B144, 2-(6-(2-methoxy-4-pyridinyl)-1,3-benzothiazol-2-yl)-N-(2-sulfamoylethyl)-2-((3,3,3-trifluoropropyl)sulfonyl)a-cetamide]: the half-inhibitory concentration (IC50) on Endothelial lipase (EL) is less than 10 nM; at hepatic lipase (HL), 33 nM.
The corresponding values for `Cn1ccc(-c2ccc3nc(C(C(=O)NCCS(N)(=O)=O)S(=O)(=O)CCC(F)(F)F)sc3c2)cc1=O` (stereo not drawn) [Example B145, 2-(6-(1-methyl-2-oxo-1,2-dihydro-4-pyridinyl)-1,3-benzothiazol-2-yl)-N-(2-sulfamoylethyl)-2-((3,3,3-trifluoropropyl)sulfonyl)a-cetamide] are less than 10 nM and 362 nM.
For `CS(=O)(=O)C(C(=O)NCCS(N)(=O)=O)c1nc2ccc(-c3cncnc3)cc2s1` (stereo not drawn) [Example B146, 2-(methylsulfonyl)-2-(6-(5-pyrimidinyl)-1,3-benzothiazol-2-yl)-N-(2-sulfamoylethyl)acetamide], in that order: less than 10 nM and 916 nM.
For `COc1cc(-c2ccc3nc(C(C(=O)NCCS(N)(=O)=O)S(C)(=O)=O)sc3c2)ccn1` (stereo not drawn) [Example B147, 2-(6-(2-methoxy-4-pyridinyl)-1,3-benzothiazol-2-yl)-2-(methylsulfonyl)-N-(2-sulfamoylethyl)acetamide], in that order: less than 10 nM and less than 10 nM.
For the compound `COCCS(=O)(=O)C(C(=O)NCCS(N)(=O)=O)c1nc2ccc(-c3ccnc(OC)c3)cc2s1` (stereo not drawn) [Example B148, 2-((2-methoxyethyl)sul-fonyl)-2-(6-(2-methoxy-4-pyridinyl)-1,3-benzothiazol-2-yl)-N-(2-sulfamoylethyl)acetamide], the IC50 against Endothelial lipase (EL) was less than 10 nM; on hepatic lipase (HL), 13 nM.
With `COc1nccc(-c2ccc3nc(C(C(=O)NCCS(N)(=O)=O)S(C)(=O)=O)sc3c2)c1F` (stereo not drawn) [Example B149, 2-(6-(3-fluoro-2-methoxy-4-pyridinyl)-1,3-benzothiazol-2-yl)-2-(methylsulfonyl)-N-(2-sulfamoylethyl)acetamide], the IC50 against Endothelial lipase (EL) was less than 10 nM; against hepatic lipase (HL), 64 nM.
For `Cc1nnc(CNC(=O)C(c2nc3cc(F)c(-c4ccccc4)cc3s2)S(=O)(=O)CCC(F)(F)F)o1` (stereo not drawn) [Example B150, 2-(5-Fluoro-6-phenyl-1,3-benzothiazol-2-yl)-N-((5-methyl-1,3,4-oxadiazol-2-yl)methyl)-2-((3,3,3-trifluoropropyl)sulfonyl)a-cetamide], in that order: less than 10 nM and 84 nM.
